This note sets out measurements from patent publication US7612061B2, “Piperazine compounds” (Les Laboratoires Servier, priority 2005, dated 2009).

In test [1] the target is T1, serotonin (5-HTT) reuptake site (Rattus norvegicus, UniProt P31652).
T1 construct: on rat frontal cortex membranes; from tissue; host or cells: rat frontal cortex membranes
Nature of the test: Affinity for serotonin reuptake sites in the rat ([3H]-citalopram competition). The class given is binding. The conditions noted are these: rat frontal cortex membranes, 0.7 nM [3H]-citalopram, 2 hours at 25° C.; pKi=-log Ki (Cheng-Prusoff); read-out: pKi r5-HTT (converted). The protocol: The affinity of the compounds for the serotonin (5-HTT) reuptake site is evaluated by competition experiments with [^3H]-citalopram on rat frontal cortex membranes. The cortices are homogenised using a Polytron in 40 volumes (weight/volume) of cold Tris-HCl (50 mM, pH 7.4) incubation buffer containing 120 mM NaCl and 5 mM KCl and are then centrifuged for a first time. The sediment is resuspended in the same buffer, incubated for 10 minutes at 37° C. and then re-centrifuged. The membranes are washed a further two times and the sediment is then resuspended in an appropriate volume of incubation buffer. The membranes are then incubated for 2 hours at 25° C. with the compound under test in the presence of 0.7 nM [^3H]-citalopram. Non-specific binding is determined with 10 μM fluoxetine. At the end of the incubation period, the samples are filtered through Unifilter GF/B type filters pretreated with PEI (0.5%) and washed several times with the incubation buffer. The radioactivity retained on the filters is counted after addition of scintillation liquid, with the aid of a scintillation counter. The isotherms obtained are analysed by non-linear regression to determine the IC50 values, which are converted into Ki using the Cheng-Prusoff equation: Ki=IC50/(1+L/kD) wherein L represents the concentration of radioligand and kD is the dissociation constant of [^3H]-citalopram on the serotonin reuptake site (0.7 nM). The results are expressed as pKi=−log Ki.

A further test has as its target T2, human NK1 receptors (Homo sapiens, UniProt P25103).
T2 construct: IM9 human lymphoblast cells endogenously expressing NK1 receptors; endogenous in cells; host or cells: IM9 human lymphoblast cells (whole-cell preparation)
The test can be described thus: hNK1 binding ([3H]-Substance P competition on IM9 human lymphoblast cells). The settings on record: IM9 human lymphoblast cells endogenously expressing NK1 receptors, 1.5 nM [3H]-Substance P, 90 minutes at ambient temperature; pKi=-log Ki (Cheng-Prusoff). The protocol:
The affinity of compounds of the invention was determined by competition experiments in the presence of [^3H]-Substance P (Sar-9, MetO2-11,2-propyl-3,4-3H). IM9 human lymphoblast cells endogenously expressing NK1 receptors are centrifuged and taken up in the incubation buffer containing 50 mM TRIS, 150 mM NaCl, 4 mM CaCl2, protease inhibitors at 1/100^e (Cocktail SIGMA P8340) and 0.2% BSA. The volume of incubation buffer is determined so as to obtain a concentration of 5×10^6 cells/ml. The cell preparation is then incubated together with 1.5 nM [^3H]-Substance P and the compound under test for 90 minutes at ambient temperature. Non-specific binding is determined in the presence of 1 μM GR 205171.
At the end of the incubation period, the samples are filtered through Unifilter GF/B type filters pretreated with PEI (0.1%) and washed several times with the filtration buffer (50 mM TRIS, 150 mM NaCl, 4 mM CaCl2). The radioactivity retained on the filters is measured by counting after addition of scintillation liquid to the filters. The counts are analysed by non-linear regression, allowing the isotherms to be plotted and the IC50 values to be determined. The latter are then converted into inhibition constants (Ki) by means of the Cheng-Prusoff equation: Ki=IC50/(1+L/KD) wherein L is the concentration of [^3H]-Substance P and KD is the dissociation constant of [^3H]-Substance P for human NK1 receptors (0.53 nM). The results are expressed as pKi(−log Ki).

Counter-ions that a name gives are not always drawn.

T2 sequence (P25103 whole entry): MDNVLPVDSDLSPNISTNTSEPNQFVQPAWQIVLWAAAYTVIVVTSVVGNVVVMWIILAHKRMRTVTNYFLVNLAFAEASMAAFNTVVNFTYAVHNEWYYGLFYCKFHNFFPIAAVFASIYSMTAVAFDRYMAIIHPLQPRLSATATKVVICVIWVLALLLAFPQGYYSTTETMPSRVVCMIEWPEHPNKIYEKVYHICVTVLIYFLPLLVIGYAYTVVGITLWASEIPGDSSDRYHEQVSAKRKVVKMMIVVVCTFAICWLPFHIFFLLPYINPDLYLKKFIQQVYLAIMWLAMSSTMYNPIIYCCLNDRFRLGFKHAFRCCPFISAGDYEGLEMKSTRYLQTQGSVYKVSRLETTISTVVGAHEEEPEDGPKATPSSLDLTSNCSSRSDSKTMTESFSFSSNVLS
T1 sequence (P31652 whole entry): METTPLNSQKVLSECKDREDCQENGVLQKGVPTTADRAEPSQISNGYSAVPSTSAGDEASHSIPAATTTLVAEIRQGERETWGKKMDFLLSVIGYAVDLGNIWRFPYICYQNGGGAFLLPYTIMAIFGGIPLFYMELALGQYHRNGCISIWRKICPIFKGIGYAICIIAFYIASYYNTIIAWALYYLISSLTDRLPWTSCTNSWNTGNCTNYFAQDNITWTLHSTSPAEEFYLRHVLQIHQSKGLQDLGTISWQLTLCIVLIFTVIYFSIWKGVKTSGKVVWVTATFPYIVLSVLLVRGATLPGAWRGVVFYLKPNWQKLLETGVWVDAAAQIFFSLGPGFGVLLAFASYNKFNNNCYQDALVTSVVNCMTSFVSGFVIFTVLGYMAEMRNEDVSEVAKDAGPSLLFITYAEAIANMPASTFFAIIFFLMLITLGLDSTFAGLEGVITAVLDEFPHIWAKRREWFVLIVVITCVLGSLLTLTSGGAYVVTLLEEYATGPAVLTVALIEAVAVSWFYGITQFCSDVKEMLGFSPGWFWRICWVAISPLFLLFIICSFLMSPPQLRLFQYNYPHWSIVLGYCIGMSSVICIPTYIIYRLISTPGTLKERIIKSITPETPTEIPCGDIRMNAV

`Fc1cc(F)cc(CO[C@@H]2Cc3ccccc3[C@@H]2N2CCNCC2)c1` [Example 36, 1-[(1S,2R)-2-[(3,5-Difluorobenzyl)oxy]-2,3-dihydro-1H-inden-1-yl]-piperazine dihydrochloride]: in test [1], the Ki is 1.07 nM.
As for `Cc1cc(C)cc(CO[C@@H]2Cc3ccccc3[C@@H]2N2CCNCC2)c1` [Example 38, 1-[(1S,2R)-2-[(3,5-Dimethylbenzyl)oxy]-2,3-dihydro-1H-inden-1-yl]-piperazine dihydrochloride], in test [1], the Ki was 1.86 nM.
In turn, `Brc1cc(Br)cc(CO[C@@H]2CCc3ccccc3[C@H]2N2CCNCC2)c1` (racemic) [Example 15, trans-1-{2-[(3,5-Dibromobenzyl)oxy]-1,2,3,4-tetrahydronaphth-1-yl}piperazine dihydrochloride] showed a Ki on human NK1 receptors of 33.1 nM.
As to `Brc1cc(Br)cc(CO[C@@H]2Cc3ccccc3[C@H]2N2CCNCC2)c1` (racemic) [Example 1, trans-1-{2-[(3,5-Dibromobenzyl)oxy]-2,3-dihydro-1H-inden-1-yl}-piperazine dihydrochloride], the Ki in test [1] is 4.47 nM; at human NK1 receptors, 145 nM.
`FC(F)(F)c1cc(CO[C@@H]2Cc3ccccc3[C@H]2N2CCNCC2)cc(C(F)(F)F)c1` (relative stereo) [Example 40, trans-1-(2-{[3,5-Bis(trifluoromethyl)benzyl]oxy}-2,3-dihydro-1H-inden-1-yl)piperazine dihydrochloride]: the Ki at human NK1 receptors was 141 nM.
For `Brc1cc(Br)cc(CO[C@@H]2COc3ccccc3[C@H]2N2CCNCC2)c1` (racemic) [Example 4, trans-1-{3-[(3,5-Dibromobenzyl)oxy]-3,4-dihydro-2H-chromen-4-yl}piperazine dihydrochloride], the Ki in test [1] is 79.4 nM; on human NK1 receptors it was 5.62 nM.
Consider `Fc1cc(Cl)cc(CO[C@@H]2COc3ccccc3[C@H]2N2CCNCC2)c1` (relative stereo) [Example 47, trans-1-{3-(3-Chloro-5-fluorobenzyloxy)-3,4-dihydro-2H-chromen-4-yl}piperazine dihydrochloride], for which the Ki in test [1] was 35.5 nM.
`Brc1cc(Br)cc(CO[C@@H]2CCCc3ccccc3[C@H]2N2CCNCC2)c1` (relative stereo) [Example 7, trans-1-{6-[(3,5-Dibromobenzyl)oxy]-6,7,8,9-tetrahydro-5H-benzo-[7]annulen-5-yl}piperazine dihydrochloride]: the Ki at human NK1 receptors is 7.24 nM.
As for `Brc1cc(Br)cc(CO[C@@H]2CCOc3ccccc3[C@H]2N2CCNCC2)c1` (relative stereo) [Example 8, trans-1-{4-[(3,5-Dibromobenzyl)oxy]-2,3,4,5-tetrahydro-1-benzoxepin-5-yl}piperazine dihydrochloride], the Ki at human NK1 receptors is 28.8 nM.
In the case of `Brc1cc(Br)cc(CO[C@@H]2Cc3ccccc3[C@@H]2N2CCNCC2)c1` [Example 21, 1-{(1S,2R)-2-[(3,5-Dibromobenzyl)oxy]-2,3-dihydro-1H-inden-1-yl}-piperazine dihydrochloride], the Ki in test [1] is 12.3 nM.
Take `Clc1cc(Cl)cc(CO[C@@H]2COc3ccccc3[C@H]2N2CCNCC2)c1` (relative stereo) [Example 44, trans-1-{3-[(3,5-Dichlorobenzyl)oxy]-3,4-dihydro-2H-chromen-4-yl}-piperazine dihydrochloride]: the Ki in test [1] is 49 nM.
With `Brc1cc(Br)cc(COC2CCc3ccccc3C2N2CCCNCC2)c1` (single isomer, unassigned; (-)) [Example 19, (−) isomer of trans-1-{2-[(3,5-dibromobenzyl)oxy]-1,2,3,4-tetra-hydronaphth-1-yl}-1,4-diazepane dihydrochloride], the Ki at human NK1 receptors was 39.8 nM.
In turn, `NC1CCN([C@@H]2c3ccccc3OC[C@H]2OCc2cc(Br)cc(Br)c2)CC1` (relative stereo) [Example 9, trans-1-{3-[(3,5-Dibromobenzyl)oxy]-3,4-dihydro-2H-chromen-4-yl}piperidin-4-amine dihydrochloride] showed a Ki on human NK1 receptors of 11 nM.
Regarding `COc1ccc2c(c1)[C@@H](N1CCNCC1)[C@H](OCc1cc(Cl)cc(Cl)c1)C2` (relative stereo) [Example 42, trans-1-{2-[(3,5-Dichlorobenzyl)oxy]-6-methoxy-2,3-dihydro-1H-inden-1-yl}piperazine dihydrochloride], in test [1], the Ki is 19.5 nM.
At human NK1 receptors, `COc1ccc2c(c1)CC[C@@H](OCc1cc(Br)cc(Br)c1)[C@@H]2N1CCNCC1` (relative stereo) [Example 13, trans-1-{2-[(3,5-Dibromobenzyl)oxy]-6-methoxy-1,2,3,4-tetrahydro-naphth-1-yl}piperazine dihydrochloride] gave a Ki of 251 nM.
